One series concerns Rattus norvegicus. To be noted: oral.
The next series has as its system Mus musculus. To be noted: chronic; duration: 50 weeks; oral; drinking water; F; Swiss; body weight.
The mark [1] stands for this setting: reproduction developmental, gavage, F, Wistar, generation: F1, F1: body weight + F1: kidney: absolute kidney weight + F1: kidney: relative kidney weight + F1: liver: absolute liver weight + F1: liver: ….
Where [2] appears, read: reproduction developmental, gavage, F, Wistar, generation: P0, P0: body weight + P0: developmental toxicity.
[3] abbreviates: reproduction developmental, gavage, M, Wistar, generation: F1, F1: body weight + F1: paternal toxicity.
The mark [4] stands for this setting: reproduction developmental, gavage, M, Wistar, generation: P0, P0: body weight + P0: developmental toxicity.

On to `CC(C)(c1ccc(OP(=O)(Oc2ccccc2)Oc2ccccc2)cc1)c1ccc(OP(=O)(Oc2ccccc2)Oc2ccccc2)cc1` [2,2-Bis[4-[bis(phenoxy)phosphoryloxy]phenyl]propane], for which the NOEL came to 2000 mg/kg-day in the series on Rattus norvegicus (acute, duration: 14 days, gavage, F, Crl:CD(SD), body weight gain + toxicity); 1000 mg/kg-day in the series with Rattus norvegicus (developmental, Sprague-Dawley, generation: F1, F1: embryotoxicity); 1000 mg/kg-day with Rattus norvegicus (developmental, gavage, Crl:CD(SD), generation: F1, F1: embryotoxicity); 1000 mg/kg-day in the series on Rattus norvegicus (reproduction developmental, F, Sprague-Dawley, generation: P0, P0: maternal toxicity); 1000 mg/kg-day with Rattus norvegicus (reproduction developmental, gavage, Crl:CD(SD), generation: F1, F1: fetotoxicity); 1000 mg/kg-day with Rattus norvegicus (reproduction developmental, gavage, Crl:CD(SD), generation: F1, F1: toxicity). Further, the NOEL amounted to 1000 mg/kg-day with Rattus norvegicus (reproduction developmental, gavage, F, Crl:CD(SD), generation: P0, P0: body weight + P0: maternal toxicity); 500 mg/kg-day in the series with Rattus norvegicus (reproduction developmental, gavage, F, Crl:CD(SD), generation: P0, P0: body weight gain + P0: maternal toxicity + P0: uterus: gravid uterine weight); 100 mg/kg-day in the series with Rattus norvegicus (reproduction developmental, gavage, F, Crl:CD(SD), generation: P0, P0: body weight gain + P0: ovary: ovary weight + P0: toxicity); 1000 mg/kg-day in the series with Rattus norvegicus (reproduction developmental, gavage, F, Crl:CD(SD), generation: P0, P0: body weight gain + P0: toxicity); 1000 mg/kg-day in the series on Rattus norvegicus (reproduction developmental, gavage, F, Crl:CD(SD), generation: P0, P0: body weight gain + P0: uterus: Gravid uterus weight); 1000 mg/kg-day with Rattus norvegicus (reproduction developmental, gavage, F, Crl:CD(SD), generation: P0, P0: toxicity). Further, the NOEL amounted to 100 mg/kg-day in the series on Rattus norvegicus (setting [1]); 1000 mg/kg-day in the series on Rattus norvegicus (reproduction developmental, gavage, F, Wistar, generation: F1, F1: toxicity); 100 mg/kg-day in the series with Rattus norvegicus (setting [2]); 1000 mg/kg-day with Rattus norvegicus (reproduction developmental, gavage, F, Wistar, generation: P0, P0: maternal toxicity); 1000 mg/kg-day with Rattus norvegicus (reproduction developmental, gavage, F, Wistar, generation: P0, P0: toxicity); 1000 mg/kg-day in the series on Rattus norvegicus (reproduction developmental, gavage, M/F, Crl:CD(SD), generation: F1, F1: body weight + F1: toxicity). Further, the NOEL with Rattus norvegicus (reproduction developmental, gavage, M, Crl:CD(SD), generation: P0, P0: body weight gain + P0: kidney: kidney: absolute weight + P0: spleen: spleen weight + P0: toxicity) was 1000 mg/kg-day; in the series with Rattus norvegicus (setting [3]), 100 mg/kg-day; in the series on Rattus norvegicus (reproduction developmental, gavage, M, Wistar, generation: F1, F1: toxicity) it was 1000 mg/kg-day; in the series on Rattus norvegicus (setting [4]) it was 100 mg/kg-day; in the series on Rattus norvegicus (reproduction developmental, gavage, M, Wistar, generation: P0, P0: toxicity) it was 1000 mg/kg-day; with Rattus norvegicus (reproduction developmental, gavage, Wistar, generation: F1, F1: developmental toxicity), 1000 mg/kg-day. The NOEL in the series with Rattus norvegicus (short-term, duration: 28 days, diet, M, Sprague-Dawley, toxicity) was 1860 mg/kg-day; with Rattus norvegicus (short-term, duration: 28 days, gavage, F, Sprague-Dawley, body weight + toxicity), 1000 mg/kg-day; with Rattus norvegicus (short-term, duration: 28 days, gavage, F, Sprague-Dawley, liver: absolute liver weight + ovary: ovary weight + toxicity) it was 1000 mg/kg-day; with Rattus norvegicus (short-term, duration: 28 days, gavage, F, Sprague-Dawley, toxicity), 1000 mg/kg-day; in the series on Rattus norvegicus (short-term, duration: 28 days, gavage, M, Sprague-Dawley, body weight + toxicity), 1000 mg/kg-day; with Rattus norvegicus (short-term, duration: 28 days, gavage, M, Sprague-Dawley, toxicity), 1000 mg/kg-day. The NOEL in the series with Rattus norvegicus (short-term, gavage, F, Sprague-Dawley, toxicity) stood at 1000 mg/kg-day; with Rattus norvegicus (short-term, gavage, M, Sprague-Dawley, toxicity) it was 1000 mg/kg-day; with Rattus norvegicus (subchronic, duration: 90 days, gavage, F, Crj:CD, body weight + toxicity) it was 1000 mg/kg-day; in the series on Rattus norvegicus (subchronic, duration: 90 days, gavage, F, Sprague-Dawley, body weight + toxicity) it was 1000 mg/kg-day; with Rattus norvegicus (subchronic, duration: 90 days, gavage, M, Crj:CD, body weight + toxicity), 1000 mg/kg-day; in the series with Rattus norvegicus (subchronic, duration: 90 days, gavage, M, Sprague-Dawley, body weight + toxicity) it was 1000 mg/kg-day. The NOEL in the series on Rattus norvegicus (subchronic, gavage, F, Sprague-Dawley, toxicity) was 1000 mg/kg-day; with Rattus norvegicus (subchronic, gavage, M, Sprague-Dawley, toxicity), 1000 mg/kg-day. For the same compound, the LOEL in the series on Rattus norvegicus (setting [1]), with Rattus norvegicus (setting [2]), with Rattus norvegicus (setting [3]) and with Rattus norvegicus (setting [4]) was 200 mg/kg-day in each case.
In the case of `O=[N+]([O-])c1ccc(Oc2ccc(Cl)cc2Cl)cc1` [Nitrofen], the NOEL turned out to be 116 mg/kg-day in the series with Rattus norvegicus (chronic, diet, M, Wistar, heart: Heart weight + spleen: Spleen weight); 127 mg/kg-day in the series with Rattus norvegicus (chronic, gavage, F, Wistar, heart: Heart weight + kidney: Kidney weight + liver: Liver weight); 1280 mg/kg-day with Rattus norvegicus (subchronic, diet, F, Wistar, spleen: Spleen weight). For the same compound, the LOEL in the series with Rattus norvegicus (chronic, diet, M, Wistar, kidney: Kidney weight + liver: Liver weight + testes: Testes weight) stood at 116 mg/kg-day; in the series on Rattus norvegicus (chronic, gavage, F, Wistar, spleen: Spleen weight), 127 mg/kg-day; in the series with Rattus norvegicus (subchronic, diet, F, Wistar, heart: Heart weight + kidney: Kidney weight), 1280 mg/kg-day; in the series with Rattus norvegicus (subchronic, diet, F, Wistar, liver: Liver weight), 10 mg/kg-day; in the series on Rattus norvegicus (subchronic, diet, M, Sprague-Dawley, Albumin + Cholesterol + Globulin + Glucose + Terminal body weight + Total protein) it was 186 mg/kg-day; with Rattus norvegicus (subchronic, diet, M, Sprague-Dawley, liver: Relative liver weight + Relative kidney weight + testes: Relative Testes weight) it was 37 mg/kg-day. Besides, the LOEL was determined as 1150 mg/kg-day in the series with Rattus norvegicus (subchronic, diet, M, Wistar, heart: Heart weight + spleen: Spleen weight); 230 mg/kg-day in the series with Rattus norvegicus (subchronic, diet, M, Wistar, kidney: Kidney Weight + testes: Testes weight); 46 mg/kg-day with Rattus norvegicus (subchronic, diet, M, Wistar, liver: Liver weight).
As usually defined, the LOAEL is the lowest dose or exposure tested at which an adverse effect was seen. The compound `O=[N+]([O-])c1ccc(O)c([N+](=O)[O-])c1` [2,4-Dinitrophenol] had an LOAEL with Mus musculus of 0.07 mg/kg-day.

The values are drawn from EPA's ToxValDB 9.5.
